Ends that are not written are not given here.
Key:
[1] = test system: C1498 cells; test: Proliferation reaction of WT1 peptide-specific cell lines to C1498 stimulator cells (3H incorporation); assay type: cell-based, mouse; conditions: irradiated C1498 stimulators; FIG. 3
Procedure: As described above, spleen cells were stimulated in vitro 3 times at intervals of 10 days using spleen cells of non-immunized mice, which were pulsed with each WT1 peptide and irradiated. Then, the proliferation reaction was measured by ^3H incorporation using irradiated C1498 cells not expressing any WT1 protein, C1498 cells pulsed with each of the above WT1 peptides, or C1498 cells expressing a WT1 protein by introduction of a WT1 gene, as a stimulator.

[2] = test system: spleen cells of immunized mice; test: WT1 peptide-specific cell lines, cell proliferation ability (3H incorporation); assay type: cell-based, mouse; conditions: for proliferation reaction with MHC class I antibody or MHC class II antibody added (3H incorporation): 4th stimulation with peptide-pulsed stimulator, antibody added to the culture solution, FIG. 2A-2C; for proliferation reaction in response to stimulator pulsed with the peptide (3H incorporation): spleen cells of mice immunized with the same peptide, 4th stimulation with irradiated peptide-pulsed spleen cells of non-immunized mice, FIG. 1A-1C
Procedure: First, the above WT1 peptides were emulsified with a Freund's incomplete adjuvant (Montanide ISA 51), and mice were intradermally inoculated with each WT1 peptide in an amount corresponding to 100 μg/mouse. The immunization was carried out 3 times at intervals of one week, the spleen was removed after 1 week of the final immunization, and spleen cells were prepared. The spleen cells were stimulated 3 times at intervals of 10 days using spleen cells of non-immunized mice, which were pulsed with the same WT1 peptide as that used for immunization of each mouse and irradiated, as a stimulator. Then, the 4th stimulation was carried out using spleen cells of non-immunized mice, which were pulsed with each peptide (WT13 5, WT18 6 or WT12 9 4 peptide) as shown in Table 7 and irradiated, as a stimulator, and proliferation reaction in response to each stimulator was measured by a ^3H incorporation experiment. An OVA (ovalbumin) peptide irrelevant to WT1 peptides was used as a control peptide. As a result, mouse spleen cells immunized with a WT13 5 peptide, a WT18 6 peptide or a WT12 9 4 peptide each responded to the stimulator pulsed with a WT13 5 peptide, a WT18 6 peptide or a WT12 9 4 peptide, and proliferated (FIG. 1A to 1C).
As described above, spleen cells were stimulated in vitro 3 times at intervals of 10 days using spleen cells of non-immunized mice, which were pulsed with each WT1 peptide and irradiated. When the 4th stimulation was then carried out using spleen cells of non-immunized mice, which were pulsed with each peptide described above and irradiated, as a stimulator, and proliferation reaction was measured, an MHC class I antibody (D^b antibody) or an MHC class II antibody (Ab antibody) was added to the culture solution and ^3H incorporation was measured.

[3] = test system: RMAS cells pulsed with a WT1126 peptide (MHC class I); test: WT1-specific immune response in spleen cells of tumor-implanted mice (cytotoxic activity, WT1 tetramer FACS); assay type: in vivo, mouse
Procedure: Next, mice were dissected on the 29th day after starting the above experiment, the spleen was excised, and a WT1-specific immune response was analyzed using spleen cells. Briefly, the spleen was excised when mice of the WT13 5 helper peptide (MHC class II)-immunized group and the control group were dissected, and spleen cells were prepared. The spleen cells were stimulated once with a WT11 2 6 peptide (MHC class I), and on the 6th day after the stimulation, cytotoxic activity of the spleen cells was measured using RMAS cells pulsed with a WT11 2 6 peptide (MHC class I) as a target cell. As a control, the cytotoxic activity of the spleen cells was measured using RMAS cells as a target cell. […] The WT1-specific cytotoxic T cells were not induced in one mouse. Also, it was clear that the induction of the WT1-specific cytotoxic T cells was lower as compared with the WT13 5 helper peptide (MHC class II)-immunized group (FIGS. 9 and 10).
Next, specific cytolysis was analyzed in mice of the above WT135 helper peptide (MHC class II)-immunized group and control group. […] Also, the above-prepared spleen cells and a fluorescence-labeled WT1 tetramer (H-2 Db WT1 Tetramer-[…]-PE) were incubated at 4° C. for 20 minutes, washed, then stained with fluorescence-labeled CD3 and CD8 antibodies, again washed, and analyzed by FACS. […]

Row | Sequence | proliferation reaction in response to C1498 cells pulsed with peptide or expressing a WT1 protein (3H incorporation) [1] | proliferation reaction with MHC class I antibody or MHC class II antibody added (3H incorporation) [2] | proliferation reaction in response to stimulator pulsed with the peptide (3H incorporation) [2] | WT1-specific cytotoxic T cells (specific cytolysis; CD3-, CD8- and WT1 tetramer-positive cells) versus control group ([3]; spleen cells of tumor-implanted mice, p<0.05, FIG. 11) | induction of WT1-specific cytotoxic T cells (cytotoxic activity of spleen cells) ([3]; spleen excised on 29th day, stimulated once with WT1126 peptide, measured on 6th day, FIG. 9)
1 | FRGIQDVRRVSGVAPTLVR (listed as Mus musculus) [WT1294] | produced by an intracellular process of an endogenous WT1 protein and displayed on an MHC class II molecule | suppressed by the addition of an MHC class II antibody | proliferated | – | –
2 | EQCLSAFTLHFSGQFTG (listed as Mus musculus) [WT186] | produced by an intracellular process of an endogenous WT1 protein and displayed on an MHC class II molecule | suppressed by the addition of an MHC class II antibody | proliferated | – | –
3 | WAPVLDFAPPGASAYGSL [WT135] | – | – | – | significantly high | induced in all 4 mice

From US11732018B2, “Cancer antigen helper peptide” (priority 2009, dated 2023)
